What was measured:
[1] = tested on: Pioneer 39K40 hybrid maize; experiment: Test B: visual plant response rating, postemergence herbicides with Compound 1 rate series; assay type: in vivo, Zea mays L. spp. indentata Sturt.; settings: in vivo
Method: (§1) For all of the following biological tests, plant response ratings were based on a 0-100 scale where zero is growth equivalent to that of untreated plants (no plant response) and 100 represents no additional growth occurring after herbicide treatment.
(§2) Herbicide mixtures were dissolved/dispersed in a non-phytotoxic liquid carrier and were sprayed postemergence to Pioneer 39K40 hybrid maize (Zea mays L. spp. indentata Sturt.) in the third collar growth stage (extended leaf height was 50-60 cm). Treated plants were grown under greenhouse conditions for two weeks before visual evaluations of plant responses were recorded.

[2] = tested on: Pioneer 39K40 hybrid maize; experiment: Test A: visual plant response rating, postemergence herbicide treatments alone and with Compound 1; assay type: in vivo, Zea mays L. spp. indentata Sturt.; settings: in vivo
Method: as §1
as §2, with “Pioneer 39K40 hybrid maize used in this test (and also Tests B and C) is particularly sensitive to herbicides that inhibit the acetohydroxy acid synthase enzyme. Herbicide” for “Herbicide”

Alexandergrass = experiment: Test K: pasture grass postemergence plant response rating, field conditions; assay type: in vivo, Brachiaria plantaginea (Link) A. S. Hitchc.; settings: Alexandergrass, postemergence, field, four weeks, 0-100 scale
Text: as §1
(§3) Herbicide mixtures were formulated, dissolved/dispersed in water containing 0.25% non-ionic surfactant, and sprayed postemergence to the pasture grasses: Surinam grass (Brachiaria decumbens Stapf), palisade grass (Brachiaria brizantha (Hochst. ex A. Rich) Stapf) and Alexandergrass (Brachiaria plantaginea (Link) A. S. Hitchc.) approximately 10-30 cm tall (extended leaf height). This test was conducted under field conditions. Visual evaluations of plant responses were recorded four weeks after the plants were treated.

Surinam grass = experiment: as above; assay type: in vivo, Brachiaria decumbens Stapf; settings: Surinam grass, postemergence, field, four weeks, 0-100 scale
Text: as §1, §3

sugarcane = experiment: Test J: sugarcane postemergence plant response rating, field conditions; assay type: in vivo, Saccharum officinarum L.; settings: postemergence, field, four weeks, 0-100 scale
Method: as §1
Herbicide mixtures were formulated, dissolved/dispersed in water containing 0.25% non-ionic surfactant, and sprayed postemergence to sugarcane (Saccharum officinarum L.) approximately 20-40 cm tall (extended leaf height). This test was conducted under field conditions. Visual evaluations of plant responses were recorded four weeks after the plants were treated.

palisade grass = experiment: Test K: pasture grass postemergence plant response rating, field conditions; assay type: in vivo, Brachiaria brizantha (Hochst. ex A. Rich) Stapf; settings: Palisade grass, postemergence, field, four weeks, 0-100 scale
Text: as §1, §3

[3] = tested on: sunflower variety Pioneer 63N82 bred for resistance to tribenuron-methyl; experiment: Test H: tribenuron-tolerant sunflower postemergence plant response rating; assay type: in vivo, Helianthus annuus L. var. Pioneer 63N82; settings: 2-leaf stage, greenhouse, two weeks, 0-100 scale
Text: as §1
Herbicide mixtures were formulated, dissolved/dispersed in water containing 0.25% non-ionic surfactant, and sprayed postemergence at the 2-leaf growth stage to a sunflower variety (Helianthus annuus L. var. Pioneer 63N82) bred for resistance to tribenuron-methyl. Treated plants were grown under greenhouse conditions for two weeks before visual evaluations of plant responses were recorded.

[4] = tested on: Pioneer 39K40 hybrid maize; experiment: Test C: visual plant response rating, postemergence acetohydroxy acid synthase-inhibiting herbicides alone and with Compound 1; assay type: in vivo, Zea mays L. spp. indentata Sturt.; settings: greenhouse, two weeks, 0-100 scale
Method: as §1
as §2, with “40-60” for “50-60”

velvetleaf = experiment: Test I: postemergence plant response rating; assay type: in vivo, Abutilon theophrasti Medik.; settings: velvetleaf, postemergence, greenhouse, two weeks, 0-100 scale
Text: as §1
(§4) Herbicide mixtures were formulated, dissolved/dispersed in water containing 0.25% non-ionic surfactant, and sprayed postemergence to the crop: soybean (Glycine max (L.) Merr.) at the 2-leaf growth stage and to weeds: lambsquarters (Chenopodium album L.) and velvetleaf (Abutilon theophrasti Medik.). Weed species were 5-10 cm tall when treated. Treated plants were grown under greenhouse conditions for two weeks before visual evaluations of plant responses were recorded.

lambsquarters = experiment: Test I: postemergence plant response rating; assay type: in vivo, Chenopodium album L.; settings: lambsquarters, postemergence, greenhouse, two weeks, 0-100 scale
Text: as §1, §4

[5] = herbicide 30 g ai/ha + Compound 1 70 g ai/ha
[6] = herbicide 30 g ai/ha + Compound 1 140 g ai/ha
[7] = herbicide 4 g ai/ha + Compound 1 125 g ai/ha
[8] = herbicide 8 g ai/ha + Compound 1 125 g ai/ha

CCS(=O)(=O)c1cccnc1S(=O)(=O)NC(=O)Nc1nc(OC)cc(OC)n1 [Rimsulfuron, rimsulfuron]
Observed Response, Herbicide alone [1]: 62 | Observed Response, Herbicide alone [2]: 92

COC(=O)c1ccccc1S(=O)(=O)NC(=O)Nc1nc(C)cc(C)n1 [Sulfometuron-methyl, sulfometuron-methyl]
Observed Response, Herbicide mixture with Compound 1 (Alexandergrass; [5]): 45 | Observed Response, Herbicide mixture with Compound 1 (Alexandergrass; [6]): 30 | Observed Response, Herbicide alone (Alexandergrass; herbicide 30 g ai/ha): 50 | Observed Response, Herbicide mixture with Compound 1 (Surinam grass; [5]): 45 | Observed Response, Herbicide mixture with Compound 1 (Surinam grass; [6]): 30 | Observed Response, Herbicide alone (Surinam grass; herbicide 30 g ai/ha): 50 | Observed Response, Herbicide mixture with Compound 1 (sugarcane; [5]): 45 | Observed Response, Herbicide mixture with Compound 1 (sugarcane; [6]): 30 | Observed Response, Herbicide alone (sugarcane; herbicide 30 g ai/ha): 60 | Observed Response, Herbicide mixture with Compound 1 (palisade grass; [5]): 40 | Observed Response, Herbicide mixture with Compound 1 (palisade grass; [6]): 20 | Observed Response, Herbicide alone (palisade grass; herbicide 30 g ai/ha): 45 | Observed Response, Herbicide mixture with Compound 1 [3, 7]: 7 | Observed Response, Herbicide alone ([3]; herbicide 4 g ai/ha): 27 | Observed Response, Herbicide mixture with Compound 1 [3, 8]: 3 | Observed Response, Herbicide alone ([3]; herbicide 8 g ai/ha): 30 | Observed Response, Herbicide mixture with Compound 1 ([3]; herbicide 16 g ai/ha + Compound 1 125 g ai/ha): 3 | Observed Response, Herbicide alone ([3]; herbicide 16 g ai/ha): 33 | Observed Response, Herbicide mixture with Compound 1 ([3]; herbicide 31 g ai/ha + Compound 1 125 g ai/ha): 7 | Observed Response, Herbicide alone ([3]; herbicide 31 g ai/ha): 37 | Observed Response, Herbicide mixture with Compound 1 ([3]; herbicide 62 g ai/ha + Compound 1 125 g ai/ha): 7 | Observed Response, Herbicide alone ([3]; herbicide 62 g ai/ha): 40 | Observed Response, Herbicide mixture with Compound 1 [4, 8]: 100 | Observed Response, Herbicide alone ([4]; herbicide 8 g ai/ha): 100

COC(=O)c1sccc1S(=O)(=O)NC(=O)Nc1nc(C)nc(OC)n1 [Thifensulfuron-methyl, thifensulfuron-methyl]
Observed Response, Herbicide mixture with Compound 1 (velvetleaf; [7]): 99 | Observed Response, Herbicide alone (velvetleaf; herbicide 4 g ai/ha): 99 | Observed Response, Herbicide mixture with Compound 1 (velvetleaf; [8]): 100 | Observed Response, Herbicide alone (velvetleaf; herbicide 8 g ai/ha): 100 | Observed Response, Herbicide alone [1]: 45 | Observed Response, Herbicide mixture with Compound 1 (lambsquarters; [7]): 99 | Observed Response, Herbicide alone (lambsquarters; herbicide 4 g ai/ha): 98 | Observed Response, Herbicide mixture with Compound 1 (lambsquarters; [8]): 100 | Observed Response, Herbicide alone (lambsquarters; herbicide 8 g ai/ha): 100 | Observed Response, Herbicide alone [2]: 73
